One molecule from ChEMBL document CHEMBL5143607, “Discovery and structure-activity relationships of a novel oxazolidinone class of bacterial type II topoisomerase inhibitors” (Bioorg Med Chem Lett, 2022) can be followed below.

The test system of assay [1] is Acinetobacter baumannii. Briefly: In vivo antibacterial activity against multidrug resistant Acinetobacter baumannii NCTC 13420 infected in mouse thigh infection model assessed in reduction in bacterial burden at 20 mg/kg, iv administered at 1 hr post infection and measured after 8 hrs (reference value: 5.4 log10CFU/g). The format is functional.
The subject of assay [2] is Acinetobacter baumannii. Briefly: In vivo antibacterial activity against multidrug resistant Acinetobacter baumannii NCTC 13420 infected in mouse thigh infection model assessed as log change in bacterial burden at 20 mg/kg, iv administered at 1 hr post infection and measured after 8 hrs relative to control. The assay is classed as functional.

`CN(C)c1cc(NC(=O)CNC(C)(C)C)c(O)c2c1C[C@H]1C[C@H]3[C@H](N(C)C)C(O)=C(C(N)=O)C(=O)[C@@]3(O)C(O)=C1C2=O` [TIGECYCLINE]: the Activity in the assay with Acinetobacter baumannii [1] is 4.2 log10CFU/g; with Acinetobacter baumannii [2], -1.2 log10CFU/g.
